We go through 16 molecules from patent US8119364B2, “Methods for generating analogs of coenzyme A” (The Regents of the University of California, priority 2005, dated 2012).

Assay [1] addresses T1, E. coli PanK (CoAA) (Escherichia coli, UniProt P0A6I3).
T1 sequence (P0A6I3 1-316): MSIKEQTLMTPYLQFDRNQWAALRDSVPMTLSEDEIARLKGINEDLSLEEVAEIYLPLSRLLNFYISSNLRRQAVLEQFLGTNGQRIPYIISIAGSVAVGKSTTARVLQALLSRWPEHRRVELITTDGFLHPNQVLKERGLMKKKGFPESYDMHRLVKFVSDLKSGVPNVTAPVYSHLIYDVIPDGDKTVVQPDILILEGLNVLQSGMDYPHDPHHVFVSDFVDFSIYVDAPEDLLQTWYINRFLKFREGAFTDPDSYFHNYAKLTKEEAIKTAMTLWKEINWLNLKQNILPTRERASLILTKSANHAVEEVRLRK
The experiment in a line: Kinetic assay of pantetheine analogs as substrates of PanK. Format: biochemical. As to conditions: for Km / kcat: compound as substrate of E. coli PanK; for Km, fold lower: compared with pantothenate. As to the method: As mentioned earlier, phosphorylation of the primary hydroxyl group of pantothenate by the first protein in the CoA biosynthesis pathway, PanK, is believed to be the rate limiting step in vivo. Jackowski and Rock, J. Bacteria 148:926, 1981. Due to its role as the gatekeeper of CoA biosynthesis, each of the new analogs was assayed for kinetic activity with PanK (Table 2).
The assay was performed as previously described using the prototypical bacterial PanK, CoAA from E. coli. Kumar and Aldrich, Org. Lett. 5:613, 2003. The reaction of CoAA with the natural substrate pantothenate gave values that conformed to those previously reported in the literature. Worthington and Burkart, Org. Biomol. Chem. 4:44, 2005; Strauss and Begley, J. Biol. Chem. 277:48205, 2002. […] Conversely, compounds with PEG linkers between the pantoic acid moiety and the bioorthogonal terminus were poor substrates for CoAA.

For assay [2], the system named is E. coli overexpressing the carrier protein VibB and the PPTase Sfp. Kind of assay: In vivo uptake: carrier protein labeling in E. coli. Format: cell-based. As to conditions: 1 mM compound, 4 hours of growth, SDS-PAGE fluorescence or western blot. As to the method: (§1) (a) Analogs were assayed for gel shift after reaction with CoA biosynthesis enzymes (CoAA/D/E), PPTase (Sfp) and carrier protein (E. coli ACP). Conversion of apo-ACP to reporter modified crypto-ACP causes a change in the mobility of the protein on native PAGE. (b) In vitro modification of the carrier protein VibB by reaction with fluorescent pantetheine analogs, CoA biosynthesis enzymes (CoAA/D/E) and Sfp. (c) In vivo modification of carrier protein by incubation of fluorescent pantetheine analogs with E. coli overexpressing VibB and the PPTase Sfp. (d) In vitro modification of VibB by reaction with bioorthogonal pantetheine analogs, CoA biosynthesis enzymes (CoAA/D/E) and Sfp. Labeled carrier protein is visualized by chemoselective ligation to the appropriate biotin reporter (9-11) followed by SDS-PAGE, blotting onto nitrocellulose, and incubation with streptavidin-linked alkaline phosphatase. (e) In vivo modification of carrier protein by incubation of bioorthogonal pantetheine analogs with E. coli overexpressing VibB and the PPTase Sfp. Visualization as in (d).
(§2) The library of pantetheine analogs was tested for integration into the E. coli CoA pathway using an in vivo assay. Clarke et al., J. Am. Chem. Soc. 127:11234, 2005. E. coli overexpressing the carrier protein VibB and the PPTase Sfp were incubated with 1 mM of each compound in 1 ml of culture. After 4 hours of growth cells were pelleted, washed, and lysed. Lysate from these cultures was run on SDS-PAGE gels and detection carried out as described for the in vitro studies. […] To verify the results of the gels and blots, samples of crude lysate were assayed by MALDI-MS (FIG. 11). For MALDI-MS analysis doubly transformed E. coli containing plasmids for the carrier protein Fren and the PPTase Sfp were used.
Background: Immunoblotting shows a protein as a band on a membrane.

Assay [3] relates to CoA biosynthetic enzymes (CoAA/D/E), PPTase Sfp and apo-ACP. The conditions noted are these: MALDI-MS, in vitro.
Excerpt: To confirm the results from this assay, the reaction mixtures were subjected to matrix-assisted laser desorption/ionization mass spectrometry (MALDI-MS). […] Compound 13 was reacted with the CoAA biosynthesis enzymes, ACP, and Sfp as described above and the reaction mix analyzed by MALDI without further purification.
Apo-ACP (a) is reacted with pantetheine analogs, CoA biosynthetic enzymes (CoAA/D/E) and the PPTase Sfp.
Assay [4] concerns CoA biosynthesis enzymes (CoAA/D/E), PPTase (Sfp) and carrier protein (E. coli ACP). The conditions noted are these: native PAGE. On the procedure:
Virga et al., Bioorg. Med. Chem. 14:1007, 2006. […] Clarke et al., J. Am. Chem. Soc. 127:11234, 2005.
as §1

Assay [5] concerns E. coli containing plasmids for the carrier protein Fren and the PPTase Sfp. The experiment in a line: MALDI-MS of crude lysate after in vivo labeling. It is filed as cell-based. On the procedure:
as §2

For another assay, the target named is CoAA (Escherichia coli, UniProt P0A6I3). The conditions noted are these: pantothenate as substrate. The source says: To isolate and investigate the effect of H-bond accepting heteroatoms in the linker region, pantetheine analogs 15 and 16 were synthesized. […] Virga et al., Bioorg. Med. Chem. 14:1007, 2006. […] To test if these compounds were acting as inhibitors of CoAA, a competitive kinetic assay was set up using pantotenate as the substrate. […] Ivey et al., J. Biol. Chem. 279:35622, 2004. Investigation of these compounds as potential inhibitor scaffolds is ongoing.

Assay [6] addresses T1, E. coli PanK (CoAA). As to conditions: natural pantetheine, from reference 14, cited from earlier work.
[7] abbreviates: compound 3 (β-Ala linkage) versus compound 1.

SMILES strings stand for the structures. Entries after “also recorded” stand apart in the source; their conditions may differ. Where two headings read alike, the source gives them in different places.

For orientation: Km means the substrate concentration at which the rate is half of its maximum. The kcat is the maximal rate divided by the concentration of active sites. Turning to `CC(C)(CO)[C@@H](O)C(=O)NCCN=[N+]=[N-]` [Compound 1], on E. coli PanK (CoAA) [1], the “Km compared with natural substrate pantothenate (fold higher)” value (“Km … (fold higher)” for short) came to 20 fold, the “turnover compared with the natural substrate (in words)” value is “turnover within the range of the natural substrate”, the Km is 692 ± 89.1 µM and the kcat came to 0.3722 ± 0.0257 s⁻¹.
With `C#CCNC(=O)CCNC(=O)[C@H](O)C(C)(C)CO` [Compound 2], at E. coli PanK (CoAA) [1], the “substrate suitability for CoAA/PanK (in words)” value was “kcat and Km values closely approaching those of the natural substrate”; the Km was found to be 32.9 ± 2.54 µM; the kcat was determined as 0.5242 ± 0.0125 s⁻¹. Further, the “modification of VibB in vivo (detectability)” value (“modification of VibB in vivo” for short) in assay [2] is reported as “detectable modification of VibB in vivo; also recorded: biodetectible in E. coli”.
In the case of `CC(C)(CO)[C@@H](O)C(=O)NCCC(=O)NCCN=[N+]=[N-]` [Compound 3], on E. coli PanK (CoAA) [1], the “substrate suitability for CoAA/PanK (in words)” value was “kcat and Km values closely approaching those of the natural substrate”; the Km is 43.5 ± 1.99 µM; the kcat is 0.46695 ± 0.007 s⁻¹. At E. coli PanK (CoAA) [1] (setting [7]), the “increase in Km” value was found to be 10 fold and the “increase in catalytic efficiency” value is reported as about 20 fold. Also, the “modification of VibB in vivo” value in assay [2] was “detectable modification of VibB in vivo; also recorded: biodetectible in E. coli”.
Regarding `CC(=O)CCC(=O)NCCNC(=O)CCNC(=O)[C@H](O)C(C)(C)CO` [Compound 4], at E. coli PanK (CoAA) [1], the “Km … (fold higher)” value is “two fold higher”, the “turnover compared with the natural substrate (in words)” value is recorded as “near equal”, the Km was determined as 62.6 ± 3.89 µM and the kcat is 0.344 ± 0.0075 s⁻¹. Besides, in assay [2], the “modification of VibB in vivo” value is recorded as “detectable, but showed much weaker labeling; also recorded: biodetectible in E. coli”.
As to `CC(C)(CO)[C@@H](O)C(=O)NCCC(=O)NCCNC(=O)CCN=[N+]=[N-]` [Compound 5], at E. coli PanK (CoAA) [1], the “Km … (fold higher)” value is on record as “two fold higher”, the “substrate suitability for CoAA/PanK (in words)” value is given as “processed particularly efficiently by PanK”, the “turnover compared with the natural substrate (in words)” value is “exceeding” and the Km was 71.9 ± 6.98 µM. Also, the kcat at E. coli PanK (CoAA) [1] stood at 0.6818 ± 0.0187 s⁻¹. Further, the “modification of VibB in vivo” value in assay [2] is recorded as “detectable modification of VibB in vivo; also recorded: biodetectible in E. coli”.
Turning to `CC(=O)CCC(=O)NCCOCCOCCNC(=O)[C@H](O)C(C)(C)CO` [Compound 6], on E. coli PanK (CoAA) [1], the “substrate suitability for CoAA/PanK (in words)” value is reported as “markedly decreased kinetic activity”, the Km turned out to be 0.196 ± 0.09 µM and the kcat worked out at 0.0267 ± 0.001 s⁻¹.
On to `CC(C)(CO)[C@@H](O)C(=O)NCCOCCOCCNC(=O)CCN=[N+]=[N-]` [Compound 7], for which, at E. coli PanK (CoAA) [1], the “Km … (fold higher)” value was “two-fold higher”, the “substrate suitability for CoAA/PanK (in words)” value is “viable substrates”, the Km is 53.8 ± 11.2 µM and the kcat came to 0.103 ± 0.00733 s⁻¹.
Take `CC(C)(CO)[C@@H](O)C(=O)NCCOCCOCCOCCOCCOCCOCCOCCOCCOCCOCCN=[N+]=[N-]` [Compound 8]: the “substrate suitability for CoAA/PanK (in words)” value at E. coli PanK (CoAA) [1] is “such poor substrates that kinetic data could not be generated”. Also, in assay [3], the “conversion to CoA analog and transfer onto carrier protein ACP” value is on record as “significantly incomplete”. In addition, the “change in mobility / conversion of apo-ACP to crypto-ACP” value in assay [4] is “multiple bands on the gel that suggest apo-protein remains”.
With `CN(C)c1ccc2c(CC(=O)NCCNC(=O)[C@H](O)C(C)(C)CO)cc(=O)oc2c1` [Compound 12], on E. coli PanK (CoAA) [1], the “substrate suitability for CoAA/PanK (in words)” value was “lower turnover and catalytic efficiency than analogs containing the natural β-Ala/pantoic acid linkage; also recorded: good binding but slow turnover”; the Km came out at 37.2 ± 5.82 µM; the kcat was determined as 0.1927 ± 0.0095 s⁻¹. The “modification of VibB in vivo” value in assay [2] is on record as “detectable modification of VibB in vivo; also recorded: biodetectible in E. coli”.
For `CN(C)c1ccc2c(CC(=O)NCCCCCCNC(=O)CCNC(=O)[C@H](O)C(C)(C)CO)cc(=O)oc2c1` [Compound 13], on E. coli PanK (CoAA) [1], the “Km … (fold higher)” value is recorded as “the same as”, the “substrate suitability for CoAA/PanK (in words)” value is listed as “processed particularly efficiently by PanK”, the “turnover compared with the natural substrate (in words)” value is listed as “near equal” and the Km stood at 28.4 ± 6.92 µM. For the same molecule, the kcat on E. coli PanK (CoAA) [1] was determined as 0.3193 ± 0.0235 s⁻¹. Also, in assay [5], the “in vivo uptake and attachment onto Fren” value is “taken up by the cell, processed into a CoA analog and attached onto Fren”. In assay [2], the “modification of VibB in vivo” value is reported as “detectable modification of VibB in vivo; also recorded: biodetectible in E. coli”. Besides, the “conversion to CoA analog and transfer onto carrier protein ACP” value in assay [3] was “converted to CoA analogs and modify ACP”.
`CN(C)c1cccc2c(S(=O)(=O)NCCNC(=O)CCNC(=O)[C@H](O)C(C)(C)CO)cccc12` [Compound 14]: at E. coli PanK (CoAA) [1], the “Km … (fold higher)” value was “the same as”, the “substrate suitability for CoAA/PanK (in words)” value is listed as “processed particularly efficiently by PanK”, the “turnover compared with the natural substrate (in words)” value is given as “near equal” and the Km is 27.3 ± 3.28 µM. Besides, the kcat at E. coli PanK (CoAA) [1] was 0.2877 ± 0.0103 s⁻¹.
Turning to `CN(C)c1ccc2c(CC(=O)NCCCOCCNC(=O)[C@H](O)C(C)(C)CO)cc(=O)oc2c1` [Compound 15], at E. coli PanK (CoAA) [1], the “substrate suitability for CoAA/PanK (in words)” value is on record as “extremely poor substrates; also recorded: losing almost all substrate activity”; the “Km, fold lower” value amounted to 100 fold; the Km was 0.76 ± 0.32 µM; the kcat was determined as 0.0227 ± 0.00083 s⁻¹. Moreover, the “mode of inhibition of CoAA” value on CoAA was “non-competitive inhibitor”.
As for `CN(C)c1ccc2c(CC(=O)NCCOCCCNC(=O)[C@H](O)C(C)(C)CO)cc(=O)oc2c1` [Compound 16], at E. coli PanK (CoAA) [1], the “substrate suitability for CoAA/PanK (in words)” value is reported as “extremely poor substrates; also recorded: losing almost all substrate activity”; the “Km, fold lower” value is recorded as 100 fold; the Km was determined as 0.14 ± 0.18 µM; the kcat turned out to be 0.0167 ± 0.0005 s⁻¹.
As to `CN(C)c1ccc2c(CC(=O)NCCOCCOCCNC(=O)[C@H](O)C(C)(C)CO)cc(=O)oc2c1` [Compound 17], on E. coli PanK (CoAA) [1], the “Km … (fold higher)” value is “two-fold higher”, the “substrate suitability for CoAA/PanK (in words)” value is “viable substrates”, the Km was determined as 51.2 ± 6.42 µM and the kcat was determined as 0.1677 ± 0.00717 s⁻¹. In addition, in assay [3], the “conversion to CoA analog and transfer onto carrier protein ACP” value is “converted to CoA analogs and modify ACP”.
On to `CN(C)c1ccc2c(CC(=O)NCCOCCOCCOCCOCCOCCOCCOCCOCCOCCOCCNC(=O)[C@H](O)C(C)(C)CO)cc(=O)oc2c1` [Compound 18], for which the “substrate suitability for CoAA/PanK (in words)” value on E. coli PanK (CoAA) [1] is given as “such poor substrates that kinetic data could not be generated”. Besides, the “change in mobility / conversion of apo-ACP to crypto-ACP” value in assay [4] is reported as “multiple bands on the gel that suggest apo-protein remains”.
For `CC(C)(CO)[C@@H](O)C(=O)NCCC(=O)NCCS` [Pantetheine], at E. coli PanK (CoAA) [6], the Km is 91 ± 10 µM and the kcat was 0.32 ± 0.0017 s⁻¹. Moreover, on E. coli PanK (CoAA) [6] (listed as pantetheine), the kcat is 0.525 s⁻¹.
